Laboratory results: US12642862B2, “Anti-CD79B antibody-drug conjugate, and preparation method therefor and pharmaceutical use thereof” (TUOJIE BIOTECH (SHANGHAI) CO., LTD., priority 2020, dated 2026)

B1: mAb015: anti-human CD79B mouse monoclonal antibody, clone 83B2G2; VH SEQ ID NO: 3, VL SEQ ID NO: 4 (antibody, listed as Mus musculus, V domains shown)
VH: QVQLQQSGAELARPGASVKLSCKASGSSFTSYGINWVKQRTGQGLEWIGEIFPRSGNTYYNEKFEGKATLTADKSSSTAYMELRSLTSEDSAVYFCAKGDLGDFDYWGQGTTLTVSS
VL: DFLMTQTPLSLPVRLGDQASISCRSSQSIVHSDGNTYFEWYLQKPGQSPKLLIYKVSNRFSGVPDRFSGSGSGTDFTLKISRVEAEDLGVYYCFQGSHVPWTFGGGTKLEIK

Key:
[1] = test system: DOHH-2 cells highly expressing human CD79B protein; test: Endocytosis of anti-CD79B antibodies in DOHH-2 cells; assay type: cell-based
Experimental: In order to determine whether the CD79B antibodies of the present disclosure can be endocytosed into cells with human CD79B after binding to human CD79B, a cell endocytosis experiment was performed with DOHH-2 cells (DSMZ, ACC 47) highly expressing human CD79B protein to assess the endocytosis ability of the antibodies.
The cells were collected by low temperature centrifugation at 4° C. for 5 min at 1000 rpm during the experiment. The cells were resuspended in 10-15 mL of FACS buffer pre-cooled on ice. The FACS buffer was composed of phosphate buffered saline (PBS), pH 7.4, with 2% fetal bovine serum (FBS). Throughout the experiment, FACS buffer was pre-cooled on ice. The cells were counted and centrifuged, and added to a 96-well plate at 300,000 cells/well. After centrifugation, the supernatant was discarded, and 12.5 μg/mL Fc blocking solution (BD, Cat No.: 564220) was added at 100 μL/well. Blocking was performed at room temperature for 10 min. Then, 20 μg/mL test CD79B antibody was added to the corresponding wells, and the plate was incubated at 4° C. for 1 h away from the light. The plate was washed twice with a pre-cooled PBS buffer to remove unbound antibodies. A complete cell culture medium (RPMI 1640 medium with 10% fetal bovine serum) was added, and the plate was incubated at 37° C. with 5% CO2 for 0 h, 1 h, 2 h and 4 h. After centrifugation, the supernatant was discarded, 2% PFA buffer solution was added at 100 μL/well to resuspend the cells, and the plate was left to stand for 10 min. Then, the plate was washed 3 times with an FACS buffer, and 100 μL of secondary antibody solution (fluorescent labeled goat anti-human secondary antibody: diluted in a 1:250 ratio, 2 μg/mL, Biolegend, Cat #409304) was added. The plate was incubated at 4° C. for half an hour away from the light. A pre-cooled PBS buffer was added, and the supernatant was discarded after centrifugation at 4° C., which were repeated three times. The cells were resuspended in an FACS buffer at 200 μL/well and detected using a flow cytometer (BD FACS Calibur).

SKBR3 = test: Test Example 2 in vitro cytotoxic activity (CTG), SKBR3; assay type: cell-based; details: SKBR3, 5 days; for IC50: Homo sapiens, SK-BR-3, 120 h
Experimental: (§1) In this experiment, the ATP content was determined using CTG to reflect the survival condition of the tumor cells.
(§2) Each of A549, SKBR3 and MDA-MB-468 was digested with pancreatin, resuspended in a culture medium and counted, and the cell density was adjusted to 2.2×10^4 cells/mL. 135 μL of cell suspension was added to each well in columns 2 to 11 of a 96-well plate, and column 12 was set as blank control. The cells were cultured in an incubator at 37° C. with 5% CO2 for 24 h.
(§3) a) Stock solution preparation: the drug was dissolved in DMSO to obtain a stock solution at a concentration of 5 mM.
(§4) b) Plate 1: stock solution in column 1 was initially subjected to a 40-fold dilution, and 3-fold gradient dilutions were performed sequentially in columns 2 to 11. Column 12 was filled with DMSO.
(§5) c) Plate 2: 196 μL of the corresponding culture medium was added to columns 2 to 11, and 4 μL of culture medium was pipetted from columns 3 to 12 of the plate 1 to columns 2 to 11 of the plate 2. The culture medium was mixed well.
(§6) 15 μL of culture medium was pipetted from the plate 2 and added to the cells. The cells were continuously cultured in an incubator at 37° C. with 5% C02 for 5 days.
(§7) 2.4. CTG assay: the plate was taken out and allowed to equilibrate to room temperature. 75 μL of CTG was added to each well and reacted at room temperature for 10 min away from the light. The luminescence value was read using a microplate reader and IC50 was calculated. 2.5. Data Results

MDA-MB-468 = test: Test Example 2 in vitro cytotoxic activity (CTG), MDA-MB-468; assay type: cell-based; details: MDA-MB-468, 5 days; for IC50: Homo sapiens, 120 h
Experimental: as §1, §2, §3, §4, §5, §6, §7

A549 = test: Test Example 2 in vitro cytotoxic activity (CTG), A549; assay type: cell-based; details: A549, 5 days; for IC50: Homo sapiens, 120 h
Experimental: as §1, §2, §3, §4, §5, §6, §7

[2] = biological target: T1, CD79B protein on the surface of DoHH2 cells (Homo sapiens, UniProt P40259); test: FACS of anti-human CD79B hybridoma positive clones; assay type: binding
T1 construct: endogenous in cells; host or cells: DoHH2 (DOHH-2) cells
T1 sequence (P40259 29-229): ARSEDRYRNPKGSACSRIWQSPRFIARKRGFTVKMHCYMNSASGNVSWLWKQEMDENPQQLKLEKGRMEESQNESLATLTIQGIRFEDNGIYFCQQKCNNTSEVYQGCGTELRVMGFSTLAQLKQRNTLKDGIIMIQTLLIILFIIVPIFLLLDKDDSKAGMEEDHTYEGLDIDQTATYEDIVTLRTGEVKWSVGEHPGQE
T1 sequence (P11912 33-226 partner): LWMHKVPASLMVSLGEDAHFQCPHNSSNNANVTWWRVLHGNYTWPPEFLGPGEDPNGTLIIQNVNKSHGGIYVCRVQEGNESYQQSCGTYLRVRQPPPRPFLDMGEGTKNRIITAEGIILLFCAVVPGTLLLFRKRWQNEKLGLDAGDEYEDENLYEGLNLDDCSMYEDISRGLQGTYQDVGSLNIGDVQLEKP
Experimental: 4) FACS screening The suspension of DoHH2 cells was centrifuged, resuspended in PBS containing 0.1% BSA, and counted. The test serum was added, and the cells were incubated at room temperature for 60 min and washed. Then Anti-Mouse IgG (Fc specific)-FITC secondary antibody was added, and the cells were incubated at room temperature for 30 min away from the light, washed three times, gently resuspended in PBS containing 0.1% BSA, and loaded on the machine for assay.
(§8) 5) Identification of hybridoma positive clones A plurality of specific antibodies against human CD79B antigen were obtained; and 17 strains of hybridomas having strongest binding force to ELISA and FACS in assays were taken for production and purification of antibodies. Specific antibodies against monkey CD79B antigen were also obtained; and 4 strains of hybridomas having strongest binding force to ELISA and FACS in assays were taken for production and purification of antibodies. Assay results of anti-monkey CD79B hybridoma positive clone cells by FACS are shown in Table 4. mIgG was used as negative control in the both assays.

[3] = biological target: T1, CD79B protein on the surface of DoHH2 cells; test: FACS of purified anti-human CD79B mouse monoclonal antibodies on DoHH2 cells; assay type: binding
Experimental: 3) Assay on anti-human CD79B mouse monoclonal antibodies by FACS The cell suspension of DoHH2 cells was centrifuged, resuspended in PBS containing 0.1% BSA, and counted. 100 μL of antibody diluted in a 1:10 ratio from 100 nM was added, and the cells were incubated at room temperature for 1 h and washed three times. Then Anti-Mouse IgG (Fc specific)-FITC secondary antibody was added, and the cells were incubated at room temperature for 30 min away from the light, washed three times, gently resuspended in PBS containing 0.1% BSA, and loaded on the machine for assay. […] The specific data are shown in FIGS. 9A and 9B, in which hIgG1 is a negative control antibody and SN8 is a positive control antibody. SN8 is an antibody (reference sequence source: US20170362318A) used in the antibody-drug conjugate polatuzumab vedotin developed by Roche pharmaceutical. Polatuzumab vedotin has been approved by the FDA for marketing.

human CD79B [4] = biological target: T2, human CD79B (Homo sapiens, UniProt P40259); test: ELISA of anti-human CD79B hybridoma positive clones; assay type: binding; set-up: the extracellular region (ECD) of human CD79B comprises 159 amino acids (Met1-Asp159); made in house; host or cells: 293F cells; details: hybridoma cell supernatant, read at 450 nm
T2 sequence (P40259 29-159 limits assumed): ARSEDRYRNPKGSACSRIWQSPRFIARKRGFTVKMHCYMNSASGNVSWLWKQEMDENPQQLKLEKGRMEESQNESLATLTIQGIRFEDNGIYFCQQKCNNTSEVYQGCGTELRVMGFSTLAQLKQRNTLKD
Experimental: (§9) 3) ELISA screening A 96-well plate was coated with 1 μg/mL antigen at 50 μL/well and incubated in a refrigerator at 4° C. overnight. The next day, the coated antigen plate was washed once (washing solution: 1×PBST). After washing, the plate was blocked with 1% BSA blocking solution prepared in 1×PBST at 37° C. for 1 h. After washing the plate 3 times with 1×PBST, 50 μL of the test cell supernatant was added, and the plate was incubated in an incubator at 37° C. for 1 h. After washing the plate 3 times with 1×PBST, 100 μL of goat anti-mouse secondary antibody diluted in a 1:5000 ratio was added, and the plate was incubated in an incubator at 37° C. for 0.5 h. After washing the plate, TMB color development solutions A and B were mixed in a 1:1 ratio for color development. 15 min later, the color development reaction was stopped with 1 N hydrochloric acid. […] value was read at 450 nm on a Spectra Max M5 microplate reader.
as §8

human CD79B [5] = biological target: T2, human CD79B; test: ELISA of purified anti-human CD79B mouse monoclonal antibodies; assay type: binding; set-up: the extracellular region (ECD) of human CD79B comprises 159 amino acids (Met1-Asp159); made in house; host or cells: 293F cells; details: purified antibodies diluted 1:10 from 100 nM; FIG. 8
Experimental: as §9, with “2) Assay on anti-human CD79B mouse monoclonal antibodies by” for “3)”, “ELISA” for “ELISA screening”, “antibody diluted in a 1:10 ratio from 100 nM” for “the test cell supernatant”

Molecule	endocytosis by DOHH-2 cells at 4° C. ([1]; 20 μg/mL antibody, incubation at 4° C.)	endocytosis by DOHH-2 cells at 37° C. after 1 h ([1]; 20 μg/mL antibody, incubation at 37° C., 1 h)	endocytosis, overall judgement ([1]; DOHH-2 cells)	time at which antibody endocytosis reaches a maximum ([1]; incubation at 37° C.)	IC50 (SKBR3)	Maximum inhibition (%) (SKBR3)	IC50 (MDA-MB-468)	Maximum inhibition (%) (MDA-MB-468)	Maximum inhibition (%) (A549)	IC50 (A549)	Mean fluorescence value [2]	FACS binding force ([3]; antibodies diluted 1:10 from 100 nM, FIGS. 9A, 9B)	FACS binding force compared with SN8 ([3]; positive control antibody SN8)	Results (OD450) (human CD79B [4])	ELISA binding force (human CD79B [5])
SN8 [reference compound]	cannot be endocytosed by DOHH-2 cells	most of the antibodies are already endocytosed by DOHH-2 cells	good endocytosis	4 h											
C=C1C[C@@H]2CC[C@@]34C[C@H]5O[C@H]6[C@@H](O3)[C@H]3O[C@H](CC[C@@H]3O[C@H]6[C@H]5O4)CC(=O)C[C@@H]3[C@@H](OC)[C@@H](C[C@H](O)CO)O[C@H]3C[C@H]3O[C@@H](CC[C@@H]1O2)C[C@@H](C)C3=C [E1-30]					0.166 nM	96.15%	0.36 nM	90.49%	62.46%	0.781 nM					
C=C1C[C@@H]2CC[C@@]34C[C@H]5O[C@H]6[C@@H](O3)[C@H]3O[C@H](CC[C@@H]3O[C@H]6[C@H]5O4)CC(=O)C[C@@H]3[C@@H](OC)[C@@H](C[C@@H](CNC)OC)O[C@H]3C[C@H]3O[C@@H](CC[C@@H]1O2)C[C@@H](C)C3=C [D-2]					1.09 nM	96.85%	1.88 nM	89.43%	62.09%	3.08 nM					
C=C1C[C@@H]2CC[C@@]34C[C@H]5O[C@H]6[C@@H](O3)[C@H]3O[C@H](CC[C@@H]3O[C@H]6[C@H]5O4)CC(=O)C[C@@H]3[C@@H](OC)[C@@H](C[C@H](O)CNC)O[C@H]3C[C@H]3O[C@@H](CC[C@@H]1O2)C[C@@H](C)C3=C [E-305]					0.571 nM	96.42%	1.17 nM	88.53%	61.27%	2.1 nM					
B1											10036	strongest FACS binding force	superior binding force to SN8	3.41	strongest ELISA binding force
